Measured values: PMC9103764, “Pilot Study on Acute Effects of Pharmacological Intraperitoneal L-Homoarginine on Homeostasis of Lysine and Other Amino Acids in a Rat Model of Isoprenaline-Induced Takotsubo Cardiomyopathy” (International Journal of Molecular Sciences, 2022)

Test: Free amino acids by GC-MS in organ homogenates of rats given i.p. hArg (isoprenaline-induced takotsubo model)
[1] = R1, hArg 440 mg/kg i.p., sacrifice 32 min, ISO 50 mg/kg i.p. at 15 min
[2] = R2, hArg 20 mg/kg i.p., sacrifice 64 min, ISO 50 mg/kg i.p. at 15 min
[3] = R3, hArg 20 mg/kg i.p., sacrifice 28 min, ISO 50 mg/kg i.p. at 15 min
[4] = R4, hArg 440 mg/kg i.p., sacrifice 87 min, ISO 50 mg/kg i.p. at 15 min
[5] = R13, hArg 20 mg/kg i.p., sacrifice 126 min, ISO 50 mg/kg i.p. at 15 min
[6] = R14, hArg 220 mg/kg i.p., sacrifice 108 min, ISO 50 mg/kg i.p. at 15 min
[7] = R17, hArg 440 mg/kg i.p., sacrifice 14 min, no ISO
[8] = R18, hArg 20 mg/kg i.p., sacrifice 114 min, ISO 50 mg/kg i.p. at 15 min
[9] = R19, hArg 220 mg/kg i.p., sacrifice 98 min, ISO 50 mg/kg i.p. at 15 min

Q: Which results are given for `N=C(N)NCCCC[C@H](N)C(=O)O` [hArg, L-homoarginine]?
A: free Arg concentration, kidney homogenate [1]: 365 µM; free Arg concentration, lung homogenate [1]: 102 µM; free Lys concentration, kidney homogenate [1]: 646 µM; free Lys concentration, lung homogenate [1]: 229 µM; free Arg concentration, heart homogenate [2]: 384 µM; free Arg concentration, kidney homogenate [2]: 37.4 µM; free Arg concentration, liver homogenate [2]: 124 µM; free Arg concentration, lung homogenate [2]: 210 µM; free Lys concentration, heart homogenate [2]: 644 µM; free Lys concentration, kidney homogenate [2]: 96 µM; free Lys concentration, liver homogenate [2]: 241 µM; free Lys concentration, lung homogenate [2]: 306 µM; free Arg concentration, heart homogenate [3]: 575 µM; free Arg concentration, kidney homogenate [3]: 60.7 µM; free Arg concentration, liver homogenate [3]: 14.3 µM; free Arg concentration, lung homogenate [3]: 7.34 µM; free Lys concentration, heart homogenate [3]: 834 µM; free Lys concentration, kidney homogenate [3]: 173 µM; free Lys concentration, liver homogenate [3]: 392 µM; free Lys concentration, lung homogenate [3]: 191 µM; free Arg concentration, kidney homogenate [4]: 73.8 µM; free Arg concentration, liver homogenate [4]: 10.3 µM; free Arg concentration, lung homogenate [4]: 185 µM; free Lys concentration, kidney homogenate [4]: 187 µM; free Lys concentration, liver homogenate [4]: 714 µM; free Lys concentration, lung homogenate [4]: 441 µM; free Arg concentration, heart homogenate [5]: 75.4 µM; free Arg concentration, kidney homogenate [5]: 370 µM; free Arg concentration, liver homogenate [5]: 21.2 µM; free Arg concentration, lung homogenate [5]: 261 µM; free Lys concentration, heart homogenate [5]: 151 µM; free Lys concentration, kidney homogenate [5]: 602 µM; free Lys concentration, liver homogenate [5]: 492 µM; free Lys concentration, lung homogenate [5]: 471 µM; free Arg concentration, heart homogenate [6]: 91.2 µM; free Arg concentration, kidney homogenate [6]: 733 µM; free Arg concentration, liver homogenate [6]: 15.9 µM; free Arg concentration, lung homogenate [6]: 171 µM; free Lys concentration, heart homogenate [6]: 154 µM; free Lys concentration, kidney homogenate [6]: 1101 µM; free Lys concentration, liver homogenate [6]: 391 µM; free Lys concentration, lung homogenate [6]: 245 µM; free Arg concentration, heart homogenate [7]: 92 µM; free Arg concentration, kidney homogenate [7]: 767 µM; free Arg concentration, liver homogenate [7]: 29.8 µM; free Arg concentration, lung homogenate [7]: 230 µM; free Lys concentration, heart homogenate [7]: 140 µM; free Lys concentration, kidney homogenate [7]: 1138 µM; free Lys concentration, liver homogenate [7]: 497 µM; free Lys concentration, lung homogenate [7]: 386 µM; free Arg concentration, heart homogenate [8]: 51.3 µM; free Arg concentration, kidney homogenate [8]: 262 µM; free Arg concentration, liver homogenate [8]: 10.1 µM; free Arg concentration, lung homogenate [8]: 136 µM; free Lys concentration, heart homogenate [8]: 153 µM; free Lys concentration, kidney homogenate [8]: 503 µM; free Lys concentration, liver homogenate [8]: 328 µM; free Lys concentration, lung homogenate [8]: 391 µM; free Arg concentration, kidney homogenate [9]: 56.3 µM; free Arg concentration, liver homogenate [9]: 15 µM; free Arg concentration, lung homogenate [9]: 233 µM; free Lys concentration, kidney homogenate [9]: 145 µM; free Lys concentration, liver homogenate [9]: 451 µM; free Lys concentration, lung homogenate [9]: 169 µM; increase in free GAA in the kidney (after i.p. hArg, Figure 5): ~100 fold; effect on global arginine bioavailability ratio (GABR) (all organs, data not shown): independent of the hArg dose
